Assay [1] addresses T1, human CSNK1D (Homo sapiens, UniProt P48730).
T1 construct: expressed in transfected cells
As to the kind of experiment: Whole Cell nBRET CSNK1D Binding Assay. The settings on record: living CHO cells stably expressing human CSNK1D tagged with nanoluciferase; NanoBret tracer 130 nM; 2 hours at 37 C.

Assay [2] addresses T2, human recombinant GST cleaved CSNK1D (Homo sapiens, UniProt P48730).
T2 construct: GST (cleaved yes); purchased University of Dundee clone DU 19064
The experiment in a line: Purified Enzyme Assay (ADP-Glo CSNK1D Kinase Assay). The assay is classed as biochemical. The settings on record: 2 nM CSNK1D; peptide substrate 150 μM; ATP 20 μM; 45 minutes at room temperature. The procedure, abridged: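 Percent activity derived from ADP-Glo quantification of ADP produced. Reactions: compound dose-response with human recombinant GST-cleaved CSNK1D, ATP and substrate peptide PLSRTL-pS-VASLPGL, incubated 45 min at room temperature.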

As a reminder, the IC50 is the concentration that inhibits the measured activity by half.

T1 sequence (P48730 whole entry): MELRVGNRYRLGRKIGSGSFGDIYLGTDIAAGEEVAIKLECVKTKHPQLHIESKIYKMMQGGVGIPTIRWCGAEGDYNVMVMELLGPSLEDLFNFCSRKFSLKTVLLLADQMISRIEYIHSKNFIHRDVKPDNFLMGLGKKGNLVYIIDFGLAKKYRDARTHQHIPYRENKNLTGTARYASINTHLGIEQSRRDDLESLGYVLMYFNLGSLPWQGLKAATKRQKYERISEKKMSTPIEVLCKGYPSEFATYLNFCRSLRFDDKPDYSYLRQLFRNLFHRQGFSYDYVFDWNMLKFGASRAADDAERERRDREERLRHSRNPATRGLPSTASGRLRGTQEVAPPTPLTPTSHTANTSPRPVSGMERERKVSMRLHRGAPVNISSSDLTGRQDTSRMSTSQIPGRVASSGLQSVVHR
T2 sequence (P48730 whole entry): as above

With `CC(=O)Nc1cc(-c2c(-c3ccc(F)cc3)nn3c2CC[C@@H]2[C@H]3C2(F)F)ccn1` (stereo in doubt) [Example 349, N-(4-((5a*R,6a*S-6,6-Difluoro-2-(4-fluorophenyl)-5,5a,6,6a-tetrahydro-4H-cyclopropa[e]pyrazolo[1,5-a]pyridin-3-yl)pyridin-2-yl)acetamide], the IC50 in assay [1] stood at 0.074 µM; in assay [2], 0.008 µM.

In the case of `COCC1(F)CCc2c(-c3c(F)cnc4[nH]ncc34)c(-c3ccc(F)cn3)nn2C1` (single isomer, unassigned) [Example 303, (*R)-5-Fluoro-4-[6-fluoro-2-(5-fluoro-2-pyridyl)-6-(methoxymethyl)-5,7-dihydro-4H-pyrazolo[1,5-a]pyridin-3-yl]-1H-pyrazolo[3,4-b]pyridine], the half-maximal inhibitory concentration (IC50) was 0.18 µM in assay [1] and 0.009 µM in assay [2].

In the case of `[2H]C([2H])([2H])C1(C([2H])([2H])[2H])Cn2nc(-c3ccc(F)cn3)c(-c3c(F)cnc4[nH]nc(Cl)c34)c2CO1` [Example 403, 3-(3-Chloro-5-fluoro-1H-pyrazolo[3,4-b]pyridin-4-yl)-2-(5-fluoropyridin-2-yl)-6,6-bis(methyl-d3)-6,7-dihydro-4H-pyrazolo[5,1-c][1,4]oxazine], the results for the 50% inhibitory concentration (IC50) in assay [1] and in assay [2] were 0.023 µM and 0.005 µM, respectively.

In the case of `[2H]C([2H])([2H])C1(C([2H])([2H])[2H])Cc2c(-c3c(F)c(C)nc4[nH]ncc34)c(-c3ccc(F)cn3)nn2C1` [Example 244, 5-Fluoro-4-[2-(5-fluoro-2-pyridyl)-5,5-bis(methyl-d3)-4,6-dihydropyrrolo[1,2-b]pyrazol-3-yl]-6-methyl-1H-pyrazolo[3,4-b]pyridine], the IC50 is 0.029 µM in assay [1] and 0.004 µM in assay [2].

Take `CC(=O)Nc1cc(-c2c(-c3ccc(F)cc3)nn3c2CC[C@H]2[C@@H]3C2(F)F)ccn1` (stereo in doubt) [Example 350, N-(4-((5a*S,6a*R)-6,6-Difluoro-2-(4-fluorophenyl)-5,5a,6,6a-tetrahydro-4H-cyclopropa[e]pyrazolo[1,5-a]pyridin-3-yl)pyridin-2-yl)acetamide]: the IC50 in assay [1] and in assay [2] was 0.001 µM throughout.

For the compound `Cc1n[nH]c2nccc(-c3c(-c4ccc(F)cn4)nn4c3CO[C@@](C)(C(F)(F)F)C4)c12` (single isomer, unassigned) [Example 418, (*R)-2-(5-Fluoropyridin-2-yl)-6-methyl-3-(3-methyl-1H-pyrazolo[3,4-b]pyridin-4-yl)-6-(trifluoromethyl)-6,7-dihydro-4H-pyrazolo[5,1-c][1,4]oxazine], the IC50 in assay [1] came to 0.124 µM; in assay [2], 0.016 µM.

With `Fc1ccc(-c2nn3c(c2-c2ccnc4[nH]ncc24)CCC3)nc1` [Example 7, 4-[2-(5-Fluoro-2-pyridyl)-5,6-dihydro-4H-pyrrolo[1,2-b]pyrazol-3-yl]-1H-pyrazolo[3,4-b]pyridine], the IC50 in assay [1] was 0.136 µM; in assay [2], 0.007 µM.

As to `Cc1nc2[nH]nc(C)c2c(-c2c(-c3ccc(F)cn3)nn3c2C[C@@H]2C[C@@H]23)c1F` [Example 274, (4aS,5aS)-3-(5-Fluoro-3,6-dimethyl-1H-pyrazolo[3,4-b]pyridin-4-yl)-2-(5-fluoropyridin-2-yl)-4,4a,5,5a-tetrahydrocyclopropa[4,5]pyrrolo[1,2-b]pyrazole], the IC50 in assay [1] was 0.056 µM; in assay [2] it was 0.005 µM.

Regarding `[2H]C([2H])([2H])[C@@]1(C([2H])([2H])F)CCc2c(-c3c(F)cnc4[nH]ncc34)c(-c3ccc(F)cn3)nn2C1` (single isomer, unassigned) [Example 294, (*R)-5-Fluoro-4-(6-(fluoromethyl-d2)-2-(5-fluoropyridin-2-yl)-6-(methyl-d3)-4,5,6,7-tetrahydropyrazolo[1,5-a]pyridin-3-yl)-1H-pyrazolo[3,4-b]pyridine], the half-maximal inhibitory concentration (IC50) in assay [1] amounted to 0.023 µM; in assay [2], 0.002 µM.

In the case of `Fc1ccc(-c2nn3c(c2-c2ccnc4[nH]nc(Cl)c24)CC2(C3)CC2(F)F)nc1` (single isomer, unassigned) [Example 256, (*S)-3-(3-Chloro-1H-pyrazolo[3,4-b]pyridin-4-yl)-1′,1′-difluoro-2-(5-fluoro-2-pyridyl)spiro[4,6-dihydropyrrolo[1,2-b]pyrazole-5,2′-cyclopropane]], the half-inhibitory concentration (IC50) amounted to 0.117 µM in assay [1] and 0.012 µM in assay [2].

`C[C@H]1OCc2c(-c3ccnc4[nH]ncc34)c(-c3ccc(F)cc3)nn2[C@H]1C` (relative stereo) [Example 112, (6*R,7*S)-2-(4-Fluorophenyl)-6,7-dimethyl-3-(1H-pyrazolo[3,4-b]pyridin-4-yl)-6,7-dihydro-4H-pyrazolo[5,1-c][1,4]oxazine]: the IC50 in assay [1] was 0.054 µM; in assay [2] it was 0.003 µM.

`C[C@H]1C[C@H](C)n2nc(-c3ccc(F)cn3)c(-c3ccnc4[nH]ncc34)c2O1` (single isomer, unassigned) [Example 205, (5*S,7*S)-2-(5-Fluoropyridin-2-yl)-5,7-dimethyl-3-(1H-pyrazolo[3,4-b]pyridin-4-yl)-6,7-dihydro-5H-pyrazolo[5,1-b][1,3]oxazine]: the IC50 in assay [1] is 0.171 µM; in assay [2] it was 0.005 µM.

Turning to `COCC1CCc2c(-c3cc(C)nc4[nH]ncc34)c(-c3ccc(F)cn3)nn2C1` (single isomer, unassigned) [Example 296, (*S)-4-[2-(5-Fluoro-2-pyridyl)-6-(methoxymethyl)-4,5,6,7-tetrahydropyrazolo[1,5-a]pyridin-3-yl]-6-methyl-1H-pyrazolo[3,4-b]pyridine], the IC50 came to 0.24 µM in assay [1] and 0.017 µM in assay [2].

With `CNC(=O)c1cc(-c2c(-c3ccc(F)cn3)nn3c2COC(C)(C(F)(F)F)C3)ccn1` (stereo not drawn) [Example 175, 4-(2-(5-Fluoropyridin-2-yl)-6-methyl-6-(trifluoromethyl)-6,7-dihydro-4H-pyrazolo[5,1-c][1,4]oxazin-3-yl)-N-methylpicolinamide], the half-maximal inhibitory concentration (IC50) in assay [1] worked out at 3.61 µM; in assay [2] it was 0.148 µM.

Consider `Cc1cc(-c2c(-c3ccc(F)cn3)nn3c2C[C@@H]2C[C@@H]23)c2cn[nH]c2n1` [Example 28, (4aS,5aS)-2-(5-Fluoropyridin-2-yl)-3-(6-methyl-1H-pyrazolo[3,4-b]pyridin-4-yl)-4,4a,5,5a-tetrahydrocyclopropa[4,5]pyrrolo[1,2-b]pyrazole], for which the results for the IC50 in assay [1] and in assay [2] were 0.019 µM and 0.002 µM, respectively.

Regarding `Fc1ccc(-c2nn3c(c2-c2ccnc4[nH]ccc24)CCCC3)cc1` [Example 33, 4-[2-(4-Fluorophenyl)-4,5,6,7-tetrahydropyrazolo[1,5-a]pyridin-3-yl]-1H-pyrrolo[2,3-b]pyridine], the IC50 is 0.02 µM in assay [1] and 0.004 µM in assay [2].

Take `Cc1cc(-c2c(-c3cscn3)nn3c2CCCC3)c2cn[nH]c2n1` [Example 32, 4-(3-(6-Methyl-1H-pyrazolo[3,4-b]pyridin-4-yl)-4,5,6,7-tetrahydropyrazolo[1,5-a]pyridin-2-yl)thiazole]: the IC50 in assay [1] was found to be 3.02 µM; in assay [2], 0.06 µM.

Take `Fc1ccc(-c2nn3c(c2-c2ccnc4[nH]ccc24)COCC3)nc1` [Example 1, 2-(5-Fluoro-2-pyridyl)-3-(1H-pyrrolo[2,3-b]pyridin-4-yl)-6,7-dihydro-4H-pyrazolo[5,1-c][1,4]oxazine]: the IC50 in assay [1] turned out to be 0.081 µM; in assay [2] it was 0.01 µM.

For the compound `Fc1ccc(-c2nn3c(c2-c2ccnc4[nH]ncc24)OCC2(CC2)C3)cc1` [Example 457, 2′-(4-Fluorophenyl)-3′-(1H-pyrazolo[3,4-b]pyridin-4-yl)-5′H,7′H-spiro[cyclopropane-1,6′-pyrazolo[5,1-b][1,3]oxazine]], the IC50 came out at 0.002 µM in assay [1] and 0.001 µM in assay [2].

Turning to `Fc1ccc(-c2nn3c(c2-c2ccnc4[nH]ncc24)OCC2(C3)CC2(F)F)cc1` (single isomer, unassigned) [Example 477, (*R)-2,2-Difluoro-2′-(4-fluorophenyl)-3′-1H-pyrazolo[3,4-b]pyridin-4-yl)-5′H,7′H-spiro[cyclopropane-1,6′-pyrazolo[5,1-b][1,3]oxazine]], the values for the IC50 in assay [1] and in assay [2] were 0.033 µM and 0.006 µM, respectively.

Turning to `Nc1cc(-c2c(-c3ccc(F)cc3)nn3c2CCC(F)(F)C3)ccn1` [Example 41, 4-(6,6-Difluoro-2-(4-fluorophenyl)-4,5,6,7-tetrahydropyrazolo[1,5-a]pyridin-3-yl)pyridin-2-amine], the IC50 worked out at 0.075 µM in assay [1] and 0.008 µM in assay [2].

In the case of `C[C@@]1(CF)CCc2c(-c3c(F)cnc4[nH]ncc34)c(-c3ccc(F)cn3)nn2C1` (single isomer, unassigned) [Example 292, (*R)-5-Fluoro-4-[6-(fluoromethyl)-2-(5-fluoro-2-pyridyl)-6-methyl-5,7-dihydro-4H-pyrazolo[1,5-a]pyridin-3-yl]-1H-pyrazolo[3,4-b]pyridine], the IC50 in assay [1] came out at 0.021 µM; in assay [2] it was 0.003 µM.

Turning to `Cc1cc(-c2c(-c3ccc(F)cn3)nn3c2O[C@@H](C)C[C@@H]3C)c2cn[nH]c2n1` (single isomer, unassigned) [Example 209, (5*S,7*S)-2-(5-Fluoro-2-pyridyl)-5,7-dimethyl-3-(6-methyl-1H-pyrazolo[3,4-b]pyridin-4-yl)-6,7-dihydro-5H-pyrazolo[5,1-b][1,3]oxazine], the IC50 in assay [1] came out at 0.165 µM; in assay [2], 0.008 µM.

On to `CCn1ncc2cc(-c3c(-c4ccc(F)cn4)nn4c3OCC(C)C4)cnc21` (stereo not drawn) [Example 444, 3-(1-Ethyl-1H-pyrazolo[3,4-b]pyridin-5-yl)-2-(5-fluoropyridin-2-yl)-6-methyl-6,7-dihydro-5H-pyrazolo[5,1-b][1,3]oxazine], for which the IC50 in assay [1] was 1.59 µM; in assay [2] it was 0.067 µM.
